The results in this text go back to US20260207621A1 (Vividion Therapeutics, Inc., priority 2022, published 2026).

One test deals with Nrf2. The test can be described thus: Nrf2 antagonism assay: ARE luciferase reporter in KYSE-70 cells. The class given is cell-based. The following applies: positive Imax corresponds to Nrf2 antagonism; for Emax: Homo sapiens, KYSE-70, KYSE-70 cells, read-out: KYSE70 Cellular ARE Luciferase Imax (%); for KYSE70 Cellular ARE Luciferase Imax (%): KYSE-70 cells. The method in brief:
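KYSE-70 esophageal squamous carcinoma cells carrying Nrf2 W24C (constitutively Nrf2-high) with an ARE-driven luciferase reporter. Loss of luciferase signal reflects Nrf2 antagonism via KEAP1 C151 engagement. IC50 and Imax come from dose-response curves; positive Imax means antagonism.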

For another test, the target named is T1, KEAP1 C151 (Homo sapiens, UniProt Q14145).
T1 construct: treating 500 μg of cell lysate generated from MDA-MB-468 breast cancer cells with DMSO or compound; endogenous in cells; host or cells: MDA-MB-468 breast cancer cell lysate
The test is described as follows: Nrf2 TMT measurement: in vitro TE50 for KEAP1 C151 (IA-DTB competition, targeted TMT mass spectrometry) in MDA-MB-468 cell lysate. It is filed as binding. As to conditions: in vitro target engagement of KEAP1 C151, targeted TMT, read-out: KEAP1_C151 TE50. Summed up: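 MDA-MB-468 lysate (500 μg) treated with compound for 1 h at room temperature, then 200 μM IA-DTB for 1 h. Labeled peptides streptavidin-enriched after trypsin digest, TMT-labeled and quantified by targeted MS3 on the KEAP1 C151 peptide. IC50 from dose-response curve fitting.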

SMILES strings stand for the structures.

T1 sequence (Q14145 whole entry): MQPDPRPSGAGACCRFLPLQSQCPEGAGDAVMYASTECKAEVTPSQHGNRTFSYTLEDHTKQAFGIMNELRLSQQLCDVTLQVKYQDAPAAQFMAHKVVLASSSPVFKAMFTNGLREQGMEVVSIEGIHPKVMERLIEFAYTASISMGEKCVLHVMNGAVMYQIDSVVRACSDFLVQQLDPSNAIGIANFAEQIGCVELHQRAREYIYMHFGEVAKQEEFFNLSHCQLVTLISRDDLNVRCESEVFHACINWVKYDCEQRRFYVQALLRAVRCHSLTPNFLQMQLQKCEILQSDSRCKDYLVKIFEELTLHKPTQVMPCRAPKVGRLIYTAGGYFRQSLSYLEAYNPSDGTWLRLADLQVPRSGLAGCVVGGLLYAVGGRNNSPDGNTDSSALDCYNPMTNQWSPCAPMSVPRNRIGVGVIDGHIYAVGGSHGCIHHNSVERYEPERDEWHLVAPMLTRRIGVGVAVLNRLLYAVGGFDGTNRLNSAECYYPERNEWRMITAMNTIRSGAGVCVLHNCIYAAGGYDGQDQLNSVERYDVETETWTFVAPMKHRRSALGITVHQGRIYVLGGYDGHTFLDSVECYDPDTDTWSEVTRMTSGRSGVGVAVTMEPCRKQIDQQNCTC

With `C=CC(=O)N1CCS(=O)(=O)CC1c1cc(Cl)cc(-c2ncc(N)cn2)c1` (single isomer, unassigned) [Compound 207, 1-(3-(3-(5-aminopyrimidin-2-yl)-5-chlorophenyl)-1,1-dioxidothiomorpholino)prop-2-en-1-one], in the test on Nrf2, the Emax amounted to 90%. At KEAP1 C151, the IC50 amounted to 45 nM.

For `C=CC(=O)N1CCS(=O)(=O)CC1c1cc(Cl)cc(-c2nccc(N)n2)c1` (single isomer, unassigned) [Compound 209, 1-(3-(3-(4-aminopyrimidin-2-yl)-5-chlorophenyl)-1,1-dioxidothiomorpholino)prop-2-en-1-one], the Emax in the test on Nrf2 amounted to 93%. Also, the IC50 at KEAP1 C151 was 82 nM.

Consider `C=CC(=O)N1CCOC[C@H]1c1cc(Cl)cc(-c2nc(O)n[nH]2)c1` (single isomer, unassigned) [Compound 210], for which the Emax in the test on Nrf2 stood at 55%. Also, on KEAP1 C151, the IC50 worked out at 380 nM.

In the case of `C=CC(=O)N1CCOC[C@H]1c1cc(Cl)cc(-n2cc(N)cn2)c1` (single isomer, unassigned) [Compound 211], the Emax in the test with Nrf2 is 57%. On KEAP1 C151, the IC50 was 85 nM.

For `C=CC(=O)N1CCOC[C@H]1c1cc(Cl)cc(-c2cc(N)on2)c1` (single isomer, unassigned) [Compound 212], in the test on Nrf2, the Emax turned out to be 90%. Also, the IC50 at KEAP1 C151 amounted to 69 nM.

Turning to `C=CC(=O)N1CCOC[C@H]1c1cc(Cl)cc(-c2cnc(=O)n(C)c2)c1` (single isomer, unassigned) [Compound 213], the Emax in the test with Nrf2 was 75%. Moreover, at KEAP1 C151, the IC50 is 470 nM.

Consider `C=CC(=O)N1CCOC[C@H]1c1cc(Cl)cc(-c2ncnc(NC)n2)c1` (single isomer, unassigned) [Compound 214], for which, in the test with Nrf2, the Emax amounted to 93%. Moreover, the IC50 on KEAP1 C151 was 100 nM.

As to `C=CC(=O)N1CCOC[C@H]1c1cc(Cl)cc(C2CNC(=O)N(C)C2)c1` (single isomer, unassigned) [Compound 216], the Emax in the test on Nrf2 turned out to be 86%. Besides, the IC50 on KEAP1 C151 was determined as 140 nM.

Consider `C=CC(=O)N1CCOC[C@H]1c1cc(Cl)cc(C2CNC(=O)N(C)C2)c1` (single isomer, unassigned) [Compound 217], for which the “KYSE70 Cellular ARE Luciferase Imax (%)” value with Nrf2 is 78%. In addition, the IC50 at KEAP1 C151 was 30 nM.

Turning to `C=CC(=O)N1CCOC[C@H]1c1cc(Cl)cc(-c2nc(N)nc(NC)n2)c1` (single isomer, unassigned) [Compound 218], the Emax with Nrf2 was found to be 92%. At KEAP1 C151, the IC50 turned out to be 16 nM.

On to `C=CC(=O)N1CCOC[C@H]1c1cc(Cl)cc(-c2ncc(C(N)=O)o2)c1` (single isomer, unassigned) [Compound 220], for which, in the test with Nrf2, the Emax came to 73%. At KEAP1 C151, the IC50 is 49 nM.

Regarding `C=CC(=O)N1CCOC[C@H]1c1cc(Cl)cc(-c2ncnc(NCCCN(C)C)n2)c1` (single isomer, unassigned) [Compound 221], in the test on Nrf2, the Emax came out at 78%. Further, at KEAP1 C151, the IC50 came to 280 nM.

As for `C=CC(=O)N1CCOC[C@H]1c1cc(Cl)cc(C2CNC(=O)NC2)c1` (single isomer, unassigned) [Compound 222], in the test with Nrf2, the Emax is 85%. At KEAP1 C151, the IC50 came to 330 nM.

Consider `C=CC(=O)N1[C@H](c2cc(Cl)nc(-c3cc(C(N)=O)ncn3)c2)COC[C@H]1C(F)F` (single isomer, unassigned) [Compound 223], for which the Emax in the test with Nrf2 was 94%. Moreover, the IC50 at KEAP1 C151 was 3.5 nM.

For the molecule `C=CC(=O)N1CCOC[C@H]1c1cc(Cl)cc(-c2nc(C(N)=O)co2)c1` (single isomer, unassigned) [Compound 224], in the test on Nrf2, the Emax was determined as 90%. Also, the IC50 at KEAP1 C151 was 170 nM.

`C=CC(=O)N1CCOC[C@H]1c1cc(Cl)cc(C2CNC(=S)N(C)C2)c1` (single isomer, unassigned) [Compound 226]: the Emax with Nrf2 was determined as 85%. In addition, the IC50 at KEAP1 C151 was found to be 200 nM.

On to `C=CC(=O)N1CCOC[C@H]1c1cc(Cl)cc(C2CNC(=S)N(C)C2)c1` (single isomer, unassigned) [Compound 227], for which the “KYSE70 Cellular ARE Luciferase Imax (%)” value in the test with Nrf2 was 90%. Moreover, the IC50 on KEAP1 C151 came to 95 nM.

Consider `C=CC(=O)N1CCOC[C@H]1c1cc(Cl)cc(N2CCNC(=O)C2)c1` (single isomer, unassigned) [Compound 228], for which the Emax in the test on Nrf2 came to 79%. In addition, the IC50 at KEAP1 C151 was found to be 130 nM.

Turning to `C=CC(=O)N1CCOC[C@H]1c1cc(Cl)cc(-c2nc(N)nc(NCCCN(C)C)n2)c1` (single isomer, unassigned) [Compound 229], in the test with Nrf2, the Emax came out at 92%. For the same molecule, the IC50 at KEAP1 C151 was found to be 560 nM.

Turning to `C=CC(=O)N1CCOC[C@H]1c1cc(Cl)cc(N2CCC(N)C2=O)c1` (single isomer, unassigned) [Compound 230], in the test with Nrf2, the Emax was 51%. Besides, on KEAP1 C151, the IC50 turned out to be 820 nM.

In the case of `C=CC(=O)N1CCOC[C@H]1c1cc(Cl)cc(C2CNC(=O)CO2)c1` (single isomer, unassigned) [Compound 231], the “KYSE70 Cellular ARE Luciferase Imax (%)” value in the test with Nrf2 is given as 55%. Moreover, the IC50 at KEAP1 C151 was 320 nM.

For the molecule `C=CC(=O)N1CCOC[C@H]1c1cc(Cl)cc(C2CNC(=O)CO2)c1` (single isomer, unassigned) [Compound 232], the “KYSE70 Cellular ARE Luciferase Imax (%)” value with Nrf2 was determined as 84%. Moreover, the IC50 at KEAP1 C151 stood at 140 nM.

In the case of `C=CC(=O)N1CCOC[C@H]1c1cc(Cl)cc(C2CNC(=S)NC2)c1` (single isomer, unassigned) [Compound 233], in the test on Nrf2, the Emax is 83%. Also, the IC50 at KEAP1 C151 amounted to 660 nM.

Consider `C=CC(=O)N1CCOC[C@H]1c1cc(Cl)cc(-c2cnc(N)o2)c1` (single isomer, unassigned) [Compound 234], for which the Emax with Nrf2 turned out to be 89%. In addition, on KEAP1 C151, the IC50 was 220 nM.

Turning to `C=CC(=O)N1CCOC[C@H]1c1cc(Cl)cc(-c2cc(N)[nH]n2)c1` (single isomer, unassigned) [Compound 235], the Emax with Nrf2 stood at 86%. At KEAP1 C151, the IC50 amounted to 110 nM.

`C=CC(=O)N1C[C@@H](C)N(C(C)=O)C[C@@H]1c1cc(Cl)cc(-c2ncc(N)cn2)c1` (single isomer, unassigned) [Compound 236]: in the test with Nrf2, the “KYSE70 Cellular ARE Luciferase Imax (%)” value came to 87%. Further, the IC50 on KEAP1 C151 amounted to 25 nM.

Take `C=CC(=O)N1C[C@@H](C)N(C(C)=O)C[C@@H]1c1cc(Cl)cc(-c2ncc(N)cn2)c1` (single isomer, unassigned) [Compound 237]: the “KYSE70 Cellular ARE Luciferase Imax (%)” value in the test with Nrf2 turned out to be 50%. For the same molecule, the IC50 at KEAP1 C151 was 140 nM.

As to `C=CC(=O)N1CC(F)(F)CCC1c1cc(Cl)cc(-c2ncc(N)cn2)c1` (single isomer, unassigned) [Compound 238, 1-(2-(3-(5-aminopyrimidin-2-yl)-5-chlorophenyl)-5,5-difluoropiperidin-1-yl)prop-2-en-1-one], the Emax with Nrf2 turned out to be 82%. In addition, the IC50 at KEAP1 C151 worked out at 34 nM.

For `C=CC(=O)N1CCCCC1c1cc(Cl)cc(-c2ncc(N)cn2)c1` (single isomer, unassigned) [Compound 239, 1-(2-(3-(5-aminopyrimidin-2-yl)-5-chlorophenyl)piperidin-1-yl)prop-2-en-1-one], the Emax in the test on Nrf2 was found to be 83%. In addition, the IC50 on KEAP1 C151 came out at 220 nM.

As to `C=CC(=O)N1CCOC[C@H]1c1cc(Cl)cc(C2CNC(=S)CO2)c1` (single isomer, unassigned) [Compound 240], in the test on Nrf2, the “KYSE70 Cellular ARE Luciferase Imax (%)” value is recorded as 61%. For the same molecule, at KEAP1 C151, the IC50 came out at 150 nM.

Consider `C=CC(=O)N1CCOC[C@H]1c1cc(Cl)cc(C2CNC(=S)CO2)c1` (single isomer, unassigned) [Compound 241], for which the “KYSE70 Cellular ARE Luciferase Imax (%)” value with Nrf2 was found to be 87%. The IC50 at KEAP1 C151 amounted to 170 nM.

With `C=CC(=O)N1CCOC[C@H]1c1cc(Cl)cc(C2CCNC(=O)N2)c1` (single isomer, unassigned) [Compound 242], the Emax in the test on Nrf2 was determined as 59%. Further, the IC50 at KEAP1 C151 was determined as 250 nM.

Consider `C=CC(=O)N1C[C@@H](C)N(C(=O)C2CC2)C[C@@H]1c1cc(Cl)cc(-c2ncc(N)cn2)c1` (single isomer, unassigned) [Compound 243], for which the Emax in the test with Nrf2 was 88%. Moreover, the IC50 at KEAP1 C151 was determined as 22 nM.

Take `C=CC(=O)N1CCOC[C@H]1c1cc(Cl)cc(N2CCN=C(N)C2)c1` (single isomer, unassigned) [Compound 244]: in the test with Nrf2, the Emax was found to be 81%. For the same molecule, the IC50 on KEAP1 C151 amounted to 150 nM.

In the case of `C=CC(=O)N1C[C@@H](C)N(C(=O)C2CC2)C[C@H]1c1cc(Cl)cc(-c2ncc(N)cn2)c1` (single isomer, unassigned) [Compound 245], the Emax in the test on Nrf2 is 53%. In addition, on KEAP1 C151, the IC50 is 90 nM.

Consider `C=CC(=O)N1CC(C)(C)S(=O)(=O)CC1c1cc(Cl)cc(-c2nccc(N)n2)c1` (single isomer, unassigned) [Compound 246, 1-(5-(3-(4-aminopyrimidin-2-yl)-5-chlorophenyl)-2,2-dimethyl-1,1-dioxidothiomorpholino)prop-2-en-1-one], for which, in the test on Nrf2, the Emax is 90%. Besides, on KEAP1 C151, the IC50 turned out to be 43 nM.

Turning to `C=CC(=O)N1CCC(F)(F)CC1c1cc(Cl)cc(-c2ncc(N)cn2)c1` (single isomer, unassigned) [Compound 247, 1-(2-(3-(5-aminopyrimidin-2-yl)-5-chlorophenyl)-4,4-difluoropiperidin-1-yl)prop-2-en-1-one], the Emax in the test with Nrf2 stood at 91%. Moreover, the IC50 on KEAP1 C151 is 16 nM.

Consider `C=CC(=O)N1CCOC[C@H]1c1cc(Cl)cc(-c2ncc(NC(C)=O)cn2)c1` (single isomer, unassigned) [Compound 248], for which the Emax with Nrf2 amounted to 89%. Besides, the IC50 at KEAP1 C151 was determined as 10 nM.
